Measurements reported in patent US20140011853A1, “SUBSTITUTED 3-(BIPHENYL-3-YL)-8,8-DIFLUORO-4-HYDROXY-1-AZASPIRO[4.5]DEC-3-EN-2-ONES FOR THERAPY” (BAYER INTELLECTUAL PROPERTY GMBH, priority 2011, published 2014).
Values joined by “and” are separate entries in the source; they are usually repeats but may differ in a detail not shown here. Equal entries are not always repeated. Where two headings read alike, the source gives them in different places.

Columns and labels:
human ACC1 [1] = target: T1, human ACC1 (Homo sapiens, UniProt Q13085); test: Human ACC1 enzyme assay (ADP-Glo); assay type: biochemical
T1 construct: FLAG (C); made in house; host or cells: baculovirus-infected insect cells (Hi5)

human ACC1 [2] = test: Human ACC1 enzyme assay (ADP-Glo); assay type: biochemical; details: for Ratio of IC50s ACC2/ACC1 (respective measurement): pairwise, same dilution series
MCF7 = test: Tumour cell proliferation, CellTiter-Glo, 96-hour incubation, MCF7; assay type: cell-based
Method: (§1) In accordance with the invention, the substances were tested in cell-based assays for the ability of the substances of inhibiting tumour cell proliferation after a 96-hour incubation with the substance. Cell viability was tested using the CellTiter-Glo® luminescent cell viability assay (Promega). The cells were sown at a density of 2000-5000 cells/well (depending on the cell line) in 100 μl growth medium on 96-well microtiter plates. For each cell line examined, cells were sown on a separate plate to determine the luminescence at t=0 hours and t=96 hours. After overnight incubation at 37° C., the luminescence values for the t=0 samples were determined. The dose plates for the t=96 hours points in time were treated with substances diluted with growth medium. The cells were then incubated at 37° C. for 96 hours, and the luminescence values for the t=96 hours samples were then determined. For data analysis, the t=0 values were subtracted from the t=96 hours values for treated and untreated samples. The differences in luminescence in percent between substance-treated samples and control values were used to determine the growth inhibition in percent.
(§2) The substances were tested in the following cell lines which represent the stated indications in an exemplary manner: […]

[3] = Octanol/water distribution coefficient (logP/D), isocratic HPLC method; assay type: physicochemical; details: pH 7.4
Description: Assay for Determining the Octanol/Water Distribution Coefficient (logP/D):
The distribution coefficient octanol/water P or D is a key parameter for estimating membrane penetration and permeability. It is defined as the ratio of the equilibrium concentrations of a substance in the two-phase system octanol/water.
It is usually stated in form of the decadic logarithm (logP or logD).
logP describes the distribution behaviour of a substance exclusively present in its neutral form. logD describes the distribution behaviour of a substance at a certain pH; depending on the ionization constant pKa of the substance, some of the substance may be present in ionic form, and some in neutral form.
The logP/D of the active compounds was determined using an isocratic HPLC method (HPLC=high performance liquid chromatography) (literature: OECD Guideline for Testing of Chemicals No. 117). The method is based on the correlation of the HPLC retention time of the test substance to that of reference substances with known distribution coefficients.
The test substance was employed as a 10 mM solution in DMSO (DMSO=dimethyl sulphoxide). 10 μl of this solution were made up to 100 μl with a methanol/water mixture in a ratio of 7+3.
The nine reference substances were dissolved individually in methanol. 100 μl each of the stock solutions were added to an HPLC vial and mixed with 300 μl of water.
A formamide solution was used to determine the hold-up time. To this end, 7 mg of formamide were dissolved in 10 ml of methanol. 100 μl of this stock solution were mixed with 500 μl of methanol and 200 μl of water.
All solutions were chromatographed using a flow rate of 1.00 ml/min.
Injection Protocol: formamide, references, test substance 1, test substance 2, . . . , formamide, references.
Evaluation of the retention times was carried out in a diode array detector (DAD) at 200-400 nm Via the molecular mass, the identity of the test substance was checked using the downstream mass spectrometer.
The HPLC run was evaluated using the Waters software Masslynx 4.1.
The logP/D values were calculated using the software “POW Determination” (proprietary development).

[4] = Membrane affinity logMA (MA-Transil); assay type: physicochemical; details: buffer pH 7.4
[5] = Plasma protein binding by equilibrium dialysis, human; assay type: in vitro ADME; details: read-out: fu (human)
Method: (§3) The binding of test substances to plasma proteins is determined by equilibrium dialysis by means of the Ht-dialysis apparatus (96-well) made of Teflon and a semipermeable membrane (regenerated cellulose, MWCO 12-14K). This separates 150 μl each of a plasma side and a buffer side (50 mM phosphate buffer). The test substance is added in 2 concentrations (usually 3 and 0.3 μM) to the plasma side and binds to plasma proteins. The unbound fraction of the test substance passes through the membrane and is distributed on either side until equilibrium is established (after approx. 6-8 h at 37° C.). The substance concentration on the buffer side and the plasma side is determined by LC-MS analysis. For this, both sides are brought by dilution with buffer or plasma to the same matrix (10% plasma) and then precipitated with methanol. The free (unbound) fraction (fu) is calculated from the quotient of the buffer and plasma concentration. Stability tests and recovery tests are run concurrently as controls. In addition, the substance in buffer is dialysed against buffer, to check the nonspecific binding to apparatus and membrane and establishment of equilibrium. Because during incubation the osmotic pressure of the plasma proteins leads to dilution of the plasma (volume shift), this possible error is determined by weighing blank plasma samples and is included in the calculation of fu. Establishment of equilibrium and plasma stability should have a value not lower than 80% and the recovery should be at least 30%. A free fraction of <1% is regarded as high, between 1 and 10% as moderate and >10% as low plasma protein binding.

[6] = Plasma protein binding by equilibrium dialysis, mouse; assay type: in vitro ADME; details: read-out: fu (mouse)
Method: as §3

[7] = Plasma protein binding by equilibrium dialysis, rat; assay type: in vitro ADME; details: read-out: fu (rat)
Method: as §3

human ACC2 = human ACC2 (Homo sapiens, UniProt O00763); test: Human ACC2 enzyme assay (ADP-Glo); details: ACC 2 IC50, individual measurements
[8] = target: human serum albumin (HSA) (Homo sapiens, UniProt P02768); test: Protein binding to human serum albumin (HSA-Transil)
KM12 = test: Tumour cell proliferation, CellTiter-Glo, 96-hour incubation, KM12; assay type: cell-based
Method: as §1, §2

PC3 = test: Tumour cell proliferation, CellTiter-Glo, 96-hour incubation, PC3; assay type: cell-based
Method: as §1, §2

H460 = test: Tumour cell proliferation, CellTiter-Glo, 96-hour incubation, H460; assay type: cell-based
Method: as §1, §2

plasma proteins = test: Plasma protein binding by equilibrium dialysis, mouse; assay type: in vitro ADME
Method: as §3

[9] = reference substances with known distribution coefficients; cited from earlier work
Spodoptera frugiperda = Spodoptera frugiperda test (SPODFR spray treatment); assay type: in vivo; details: 500 g/ha, after 7 days
Myzus persicae = test: Myzus test (MYZUPE spray treatment); assay type: in vivo
Description: Disks of Chinese cabbage (Brassica pekinensis) infested by all stages of the green peach aphid (Myzus persicae) are sprayed with an active compound formulation of the desired concentration.

Tetranychus urticae = test: Tetranychus test, OP-resistant (TETRUR spray treatment); assay type: in vivo
Meloidogyne incognita = Meloidogyne incognita test (MELGIN); assay type: in vivo; details: 20 ppm, after 14 days
Method: • Solvent: 125 parts by weight of acetone
Containers are filled with sand, solution of active compound, Meloidogyne incognita egg/larvae suspension and lettuce seeds. The lettuce seeds germinate and the plants develop. On the roots, galls are formed. After 14 days, the nematicidal effect in % is determined by the formation of galls. 100% means that no galls have been found; 0% means that the number of galls on the treated plants corresponds to the untreated control.

Lucilia cuprina = Lucilia cuprina test (LUCICU); assay type: in vivo; details: 100 ppm, after 2 days
Description: (§4) • Solvent: dimethyl sulphoxide
Vessels containing horse meat treated with the active compound preparation of the desired concentration are populated with about 20 Lucilia cuprina larvae.

Boophilus microplus = Boophilus microplus test (BOOPMI injection); assay type: in vivo; details: 20 μg/animal, after 7 days
Method: as §4
The solution of active compound is injected into the abdomen (Boophilus microplus), and the animals are transferred into dishes and kept in a climatized room. The activity is assessed by […] of fertile eggs.

Phaedon cochleariae = test: Phaedon test (PHAECO spray treatment); details: 500 g/ha, after 7 days
[10] = ACC 1 IC50, individual measurements
[11] = Homo sapiens, MCF7, 96 h, read-out: MCF7 IC50
[12] = Homo sapiens, MCF7, 96 h; read-out: MCF7 IC50

Sequence of human ACC2 (O00763 27-2458 limits assumed): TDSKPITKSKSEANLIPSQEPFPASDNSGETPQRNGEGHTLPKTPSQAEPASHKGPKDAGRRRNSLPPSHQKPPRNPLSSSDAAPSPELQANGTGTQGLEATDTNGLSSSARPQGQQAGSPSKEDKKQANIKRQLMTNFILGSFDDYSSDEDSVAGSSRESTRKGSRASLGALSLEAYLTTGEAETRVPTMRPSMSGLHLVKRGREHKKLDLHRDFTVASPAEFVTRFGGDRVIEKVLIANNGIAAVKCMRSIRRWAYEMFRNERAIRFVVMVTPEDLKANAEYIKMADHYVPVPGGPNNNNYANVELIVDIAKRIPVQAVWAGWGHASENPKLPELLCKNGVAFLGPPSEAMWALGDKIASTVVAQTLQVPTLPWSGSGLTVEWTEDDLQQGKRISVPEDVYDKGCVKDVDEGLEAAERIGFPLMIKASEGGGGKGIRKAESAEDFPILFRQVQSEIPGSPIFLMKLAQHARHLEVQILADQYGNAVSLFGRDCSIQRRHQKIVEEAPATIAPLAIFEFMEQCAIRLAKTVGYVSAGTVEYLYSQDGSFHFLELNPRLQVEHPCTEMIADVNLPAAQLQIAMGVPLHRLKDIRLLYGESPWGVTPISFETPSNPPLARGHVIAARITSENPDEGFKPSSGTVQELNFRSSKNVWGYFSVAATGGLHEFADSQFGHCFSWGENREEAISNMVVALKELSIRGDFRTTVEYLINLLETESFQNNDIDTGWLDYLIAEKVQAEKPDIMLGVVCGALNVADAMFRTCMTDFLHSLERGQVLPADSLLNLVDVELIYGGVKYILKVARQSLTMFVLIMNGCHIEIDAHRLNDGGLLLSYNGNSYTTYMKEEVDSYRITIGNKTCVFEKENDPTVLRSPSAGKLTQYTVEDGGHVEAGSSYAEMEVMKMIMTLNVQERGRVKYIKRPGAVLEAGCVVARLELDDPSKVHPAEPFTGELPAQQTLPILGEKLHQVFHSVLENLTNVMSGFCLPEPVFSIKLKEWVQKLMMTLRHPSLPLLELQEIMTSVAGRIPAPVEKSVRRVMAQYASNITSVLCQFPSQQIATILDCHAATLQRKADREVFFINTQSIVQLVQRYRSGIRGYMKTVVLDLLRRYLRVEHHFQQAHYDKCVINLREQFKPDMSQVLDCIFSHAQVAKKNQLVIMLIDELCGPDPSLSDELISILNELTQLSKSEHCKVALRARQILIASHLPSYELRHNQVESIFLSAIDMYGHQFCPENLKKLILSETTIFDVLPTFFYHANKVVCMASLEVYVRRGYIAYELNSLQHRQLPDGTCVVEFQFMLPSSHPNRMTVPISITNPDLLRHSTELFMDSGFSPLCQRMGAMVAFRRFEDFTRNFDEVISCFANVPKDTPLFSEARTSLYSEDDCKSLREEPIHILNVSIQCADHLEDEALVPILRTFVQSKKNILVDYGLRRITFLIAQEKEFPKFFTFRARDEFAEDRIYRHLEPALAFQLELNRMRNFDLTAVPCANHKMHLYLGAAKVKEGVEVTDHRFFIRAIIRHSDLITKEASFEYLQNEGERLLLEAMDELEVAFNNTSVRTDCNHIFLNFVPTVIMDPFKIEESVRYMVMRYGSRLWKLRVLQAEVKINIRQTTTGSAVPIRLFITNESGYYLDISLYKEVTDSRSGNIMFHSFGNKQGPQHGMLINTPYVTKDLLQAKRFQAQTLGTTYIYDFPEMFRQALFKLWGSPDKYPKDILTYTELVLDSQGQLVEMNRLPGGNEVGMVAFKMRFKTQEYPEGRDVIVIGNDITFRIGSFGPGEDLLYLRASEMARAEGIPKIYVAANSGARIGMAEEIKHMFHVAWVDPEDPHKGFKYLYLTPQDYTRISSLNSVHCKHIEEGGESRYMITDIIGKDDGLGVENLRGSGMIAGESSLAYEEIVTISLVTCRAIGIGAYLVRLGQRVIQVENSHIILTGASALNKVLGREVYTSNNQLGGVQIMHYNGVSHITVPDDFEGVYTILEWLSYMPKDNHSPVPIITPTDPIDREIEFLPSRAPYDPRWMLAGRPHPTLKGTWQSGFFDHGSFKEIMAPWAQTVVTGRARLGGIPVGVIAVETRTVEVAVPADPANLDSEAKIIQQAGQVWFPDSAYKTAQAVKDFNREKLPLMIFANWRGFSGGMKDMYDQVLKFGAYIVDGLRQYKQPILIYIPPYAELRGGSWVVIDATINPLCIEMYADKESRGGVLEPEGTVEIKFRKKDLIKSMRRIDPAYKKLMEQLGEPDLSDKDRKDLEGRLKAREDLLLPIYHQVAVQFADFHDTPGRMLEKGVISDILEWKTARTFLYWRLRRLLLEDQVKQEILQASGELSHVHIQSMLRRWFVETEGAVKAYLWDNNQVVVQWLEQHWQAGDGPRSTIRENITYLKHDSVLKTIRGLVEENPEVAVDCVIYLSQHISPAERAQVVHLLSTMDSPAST
Sequence of human serum albumin (HSA) (P02768 25-609): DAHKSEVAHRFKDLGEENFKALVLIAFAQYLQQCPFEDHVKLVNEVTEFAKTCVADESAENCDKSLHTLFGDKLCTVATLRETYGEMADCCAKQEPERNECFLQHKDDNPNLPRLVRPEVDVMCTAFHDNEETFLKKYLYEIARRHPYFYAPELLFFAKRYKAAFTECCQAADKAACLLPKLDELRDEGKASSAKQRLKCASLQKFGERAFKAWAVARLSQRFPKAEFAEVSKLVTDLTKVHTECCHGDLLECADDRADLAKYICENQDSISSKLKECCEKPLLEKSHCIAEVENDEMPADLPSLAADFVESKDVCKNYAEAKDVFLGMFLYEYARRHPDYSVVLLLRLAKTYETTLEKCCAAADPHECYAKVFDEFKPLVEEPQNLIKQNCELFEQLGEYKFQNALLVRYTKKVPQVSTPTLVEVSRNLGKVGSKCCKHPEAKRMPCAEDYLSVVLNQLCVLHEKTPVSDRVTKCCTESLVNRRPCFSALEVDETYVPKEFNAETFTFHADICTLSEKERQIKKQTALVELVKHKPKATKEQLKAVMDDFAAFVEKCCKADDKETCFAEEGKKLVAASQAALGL

SMILES	IC50 (human ACC1 [1]; [10])	Selectivity ACC1 vs. ACC2 (mean of the individual measurements ± standard deviation) (human ACC1 [2])	Ratio of IC50s ACC2/ACC1 (respective measurement) (human ACC1 [2])	IC50 (MCF7; [11]) [nM]	chromatographic logP [3]	logMA [4]	fraction unbound [5]	fraction unbound [6]	fraction unbound [7]	IC50 (human ACC2)	Kd [8] [nM]	IC50 (MCF7; [12]) [nM]	nematicidal effect (formation of galls) (Meloidogyne incognita) [%]	further results
Cc1ccc(-c2ccc(Cl)cc2)cc1C1=C(O)C2(CCCCC2)NC1=O [V.2-b, 3-(4′-Chloro-4-methylbiphenyl-3-yl)-4-hydroxy-1-azaspiro[4.5]dec-3-en-2-one, reference compound]	208 nM and 196 nM	12.8 ± 1.3	11.5 and 14.1	41	2.77	2.05 (1.9-2.2, n = 2)	0.0036	0.0281	0.0071	2400 nM and 2760 nM	3220			
Cc1ccc(-c2ccc(Cl)c(F)c2)cc1C1=C(O)C2(CCCCC2)NC1=O [V.1-b, 3-(4′-Chloro-3′-fluoro-4-methylbiphenyl-3-yl)-4-hydroxy-1-azaspiro[4.5]dec-3-en-2-one, reference compound]		46.9	45.9		2.8	2.55 (2.4-2.9, n = 4)	0.004	0.0746	0.0612	1950 nM	3500	22		IC50 (human ACC1 [1]; individual measurements, read-out: ACC 1 IC50): 43 nM
Cc1ccc(-c2ccc(Cl)cc2)cc1C1=C(O)[C@]2(CC[C@H](C(F)(F)F)CC2)NC1=O [V.2-a, (5s,8s)-3-(4′-Chloro-4-methylbiphenyl-3-yl)-4-hydroxy-8-(trifluoromethyl)-1-azaspiro[4.5]dec-3-en-2-one, reference compound]		9.8 ± 1.4	11.2 and 8.4		2.23	2.38 (2.0-2.7, n = 4)				1220 nM and 940 nM		35		IC50 (KM12; Homo sapiens, KM12, 96 h; read-out: KM12 IC50): 37 nM; IC50 (PC3; Homo sapiens, PC-3, 96 h; read-out: PC3 IC50): 38 nM; IC50 (H460; Homo sapiens, NCI-H460, 96 h; read-out: H460 IC50): 57 nM; fu (mouse) (plasma proteins): 2.41%; Kd at 0.25 μmol/liter ([8]; human, pH 7.4): 3070 nM
Clc1ccc(C(c2ccc(Cl)cc2)C(Cl)(Cl)Cl)cc1 [DDT]														log P [9]: 6.2
Cc1ccc(-c2ccc(F)cc2)c(C)c1C1=C(O)C2(CCC(F)(F)CC2)NC1=O [Example I-1-a-2]													100	effect (kill of caterpillars) (Spodoptera frugiperda): 100%; effect (kill of aphids) (Myzus persicae; 500 g/ha, after 6 days): 100%; effect (kill of spider mites) (Tetranychus urticae; 500 g/ha, after 6 days): 100%; kill of larvae (Lucilia cuprina): 100%; effect (no fertile eggs) (Boophilus microplus): 80%; effect (kill of beetle larvae) (Phaedon cochleariae): 100%
Cc1ccc(-c2ccc(Cl)cc2)c(C)c1C1=C(O)C2(CCC(F)(F)CC2)NC1=O [Example 1-5, 3-(4′-Chloro-2,4-dimethylbiphenyl-3-yl)-8,8-difluoro-4-hydroxy-1-azaspiro[4.5]dec-3-en-2-one]	218 nM	12.4	12.4	205						2700 nM			100	IC50 (KM12; Homo sapiens, KM12, 96 h, read-out: KM12 IC50): 668 nM; IC50 (PC3; Homo sapiens, PC-3, 96 h, read-out: PC3 IC50): 506 nM; IC50 (H460; Homo sapiens, NCI-H460, 96 h, read-out: H460 IC50): 769 nM; pest or weed control at 500 g/ha (Myzus persicae; Myzus persicae, 144 h, read-out: effect (kill of aphids)): 100%; pest or weed control at 100 g/ha (Tetranychus urticae; Tetranychus urticae, 144 h, read-out: effect (kill of spider mites)): 90%; melting point: 141 to 145 °C
